Patent publication US8703822B2, “Method for removing undifferentiated and dedifferentiated stem cell” (Nanyang Polytechnic, priority 2009, dated 2014)
Converted amounts (≈) assume the structure as drawn. Where two headings read alike, the source gives them in different places.

Assays:
hESCs = test: light microscopy of hESC colonies cultured on murine feeder cells, hESC-selective killing; assay type: cell-based, human; conditions: for selective killing of hESCs (FIG. 4): 24 hr incubation; for lowest concentration at which cytotoxic effects were seen: 2.5 μg/mL = 8 μM; for killing of hESCs (light microscopic images, FIG. 2): JC010 12 and 24 hours, JC011 24 hours; for cytotoxic effect on undifferentiated hESCs (summary) / specificity (hESCs versus feeder cells), compared among JC010, JC011 and JC017: summary of the experimental data
Procedure: (§1) Using the above cell viability assays, various cell types including hESCs, differentiated hESCs, human primary astrocytes and murine feeder cells (mouse embryonic fibroblasts (MEFs)) were treated with one of the analogues synthesized in Examples 1 to 3. The cells were then visualized with 5×, 10×, 20× and 40× objectives using dark field, phase optics and fluorescence microscopy with an Olympus IX51 inverted microscope or Leica MZ8 stereomicroscope.
(§2) In the phase contrast optics images (FIGS. 1A and 1B), the hESCs are seen as dark colonies surrounded by the murine feeder cells (mouse embryonic fibroblasts (MEFs)). In the dark field images (FIGS. 1C and 1D), the hESCs are seen as bright colonies surrounded by the murine feeder cells (mouse embryonic fibroblasts (MEFs)).

[1] = system: normal human primary astrocytes; test: resazurin cell viability assay on normal human primary astrocytes (FIG. 8B); assay type: cell-based
[2] = system: differentiated hESCs (H1); assay type: cell-based
Procedure: (§3) The resazurin cell viability assay was conducted on hESC, differentiated hESCs, osteoblasts, murine feeder cells (mouse embryonic fibroblasts (MEFs)), IPSCs derived from foreskin (IPS-DF19-9 and IPS-foreskin) and CSCs (colon CSCs and breast CSCs). The assay is based on the use of an indicator dye resazurin to measure the metabolic capacity of a cell. A viable cell would retain the ability to reduce resazurin to resorufin, which is a highly fluorescent compound.
(§4) The percentage of the resazurin activity was calculated based on the following equation:
(§5) The percentage of cell death was calculated based on the following equation: % cell death=100−% activity (Eq. 2)
(§6) The cells were plated in a 96-well multi-well plate 5 days before the assay. 200 μL of medium containing 10^5/mL cells (i.e. 2×10^4 cells) were used for each well.
The cells were then treated with 12.5 μg/mL of the capsaicin analogues. The final concentration of DMSO used as control was 1% v/v.
[…] The media was then removed from the wells and 100 μL of PBS buffer was added to each well. 20 μL of resazurin was added to each well to give a final resazurin concentration of 8 μg/mL. The plates were further incubated at 37° C. for 2 h, after which the plate was read at an excitation wavelength of 535 nm and an emission wavelength of 590 nm with a Tecan Infinite 200 microplate reader.
bGFG is a critical growth factor that maintains the hESCs in the undifferentiated state. Removal or withdrawal of bGFG induces hESCs to undergo differentiation.

undifferentiated hESCs = test: dose response curves on undifferentiated hESCs (FIG. 11A); assay type: cell-based, human; conditions: from dose response curve FIG. 11A
Excerpt: In other words, JC010 and JC011 were very cytotoxic against undifferentiated hESCs. It can also be seen from the dose response curve in FIG. 11B, that both analogues were not cytotoxic to differentiated cells.

[3] = system: breast CSC cell line (Celprogen Cat#36102-29P-T25); test: resazurin cell viability assay on breast CSC cell line; assay type: cell-based; conditions: 12.5 μg/mL, FIG. 14
hESC = test: Trypan Blue cell viability assay on hESC; assay type: cell-based, human; conditions: 40 μM; 24 hours (JC011 also 48 hr), compared to untreated hESC
Procedure: The images on the left (A and B) show untreated hESC while the images on the right (C and D) show hESC treated with 40 μM of JC010 for 24 hours. The arrows indicate trypan blue positive dead cells.
The Trypan Blue cell viability assay was conducted by first diluting 10 μL of a cell suspension with 10 μL of 0.4% w/v Trypan Blue solution. The cell suspension and Trypan Blue solution were mixed using a pipette, after which the mixture was incubated at room temperature for 10 minutes. 20 μL of the mixture was then loaded into a charged hemocytometer for visualization under 10× and 20× magnification phase optics microscopy. Cells which stain blue are dead cells.

[4] = system: undifferentiated hESCs (H1 cells); test: resazurin cell viability assay on undifferentiated H1 hESCs (FIG. 7A); assay type: cell-based, human; conditions: 40 μM, 24 hr and 48 hr; versus JC005, capsaicin (CAP) and DMSO
Procedure: (§7) The hESCs used are undifferentiated H1 cells, while the murine feeder cells (mouse embryonic fibroblasts (MEFs)) used are J28 C57/BL6J cells. The columns represent the means of 4 experiments while the bars represent relative fluorescence ±s.d. The control was untreated hESCs and untreated murine feeder cells (mouse embryonic fibroblasts (MEFs)) with a final DMSO concentration of 1% v/v while the final sample concentration was 40 μM. * denotes P<0.01, Student's T-test, 2-tail.
as §3, with “A viable cell would retain the ability to reduce resazurin to resorufin, which is a highly fluorescent compound.” left out
(§8) In wells A12-H12, 200 μl/well DMSO were added to provide the Blank reading.
as §4
(§9) The percentage of cell death was calculated based on the following equation: % cell death=100−% activity (Eq. 2) […]
(§10) […] The plates were further incubated at 37° C. for 2 h, after which the plate was read at an excitation wavelength of 535 nm and an emission wavelength of 590 nm with a Tecan Infinite 200 microplate reader.

[5] = system: murine feeder cells (mouse embryonic fibroblasts (MEFs)), J28 C57/BL6J cells; test: resazurin cell viability assay on murine feeder cells (FIG. 7B); assay type: cell-based; conditions: 40 μM, 24 hr and 48 hr; versus JC005, capsaicin (CAP) and DMSO
Procedure: as §7
as §3, with “A viable cell would retain the ability to reduce resazurin to resorufin, which is a highly fluorescent compound.” left out
as §8, §4, §9, §10

Wicell H1 cells = test: dichlorofluorescin diacetate (DCFH-DA) analysis of reactive oxygen species; assay type: cell-based, human; conditions: 12.5 μg/mL, 3 hr
Procedure: Live adherent cells were washed with PBS solution. DCHF-DA solution was then added to the cells in PBS solution at a final working concentration of 10 μM. The mixture was then incubated at room temperature for 5 minutes, and visualized under a fluorescence microscope with FITC filters. Bright green fluorescent cells are indicative of cells with a high content of reactive oxygen species (ROS).

IPS-DF19-9 cells = test: resazurin cell viability assay on IPS-DF19-9 cells; assay type: cell-based; conditions: 12 μg/mL, 16-hour exposure
Procedure: as §3, §4, §5, §6
(§11) The cells were then incubated at 37° C. for about 16 h overnight in 5% CO2. The media was then removed from the wells and 100 μL of PBS buffer was added to each well. 20 μL of resazurin was added to each well to give a final resazurin concentration of 8 μg/mL. The plates were further incubated at 37° C. for 2 h, after which the plate was read at an excitation wavelength of 535 nm and an emission wavelength of 590 nm with a Tecan Infinite 200 microplate reader. […]

IPS-foreskin cells = test: resazurin cell viability assay on IPS-foreskin cells; assay type: cell-based; conditions: 12 μg/mL, 16-hour exposure
Procedure: as §3, §4, §5, §6, §11

[6] = system: colon CSC cell line (Celprogen Cat#36112-39P-T25); conditions: 12.5 μg/mL, FIG. 13
[7] = system: murine feeder cells (mouse embryonic fibroblasts (MEFs)); test: light microscopy of murine feeder cells co-cultured with hESCs; assay type: cell-based; conditions: summary of the experimental data
Procedure: as §1, §2

CSCs = test: cytotoxic effect on CSCs, summary over colon and breast CSC lines; assay type: cell-based; conditions: summary of the experimental data
Procedure: Seven analogues having different side chain lengths (JC010, JC011, JC017, JC040, JC048, JC049 and JC050) were tested for their cytotoxic effect on CSCs using the resazurin cell viability assay. Two CSC cell lines were used, a colon CSC cell line (Celprogen Cat#36112-39P-T25) and a breast CSC cell line (Celprogen Cat#36102-29P-T25).

[8] = comparison value, source not given; cited from earlier work

CCCCCCCCC(=O)NCc1ccc(OC)c(O)c1 [JC005]
cell death of hESCs (BGO1v) (hESC cell line BGO1v; 40 μM, FIG. 8A): not cytotoxic | selective killing of hESCs (FIG. 4) (hESCs; 12.5 μg/mL (40 μM)): No such killing effect | cell death of normal human primary astrocytes ([1]; 40 μM, FIG. 8B): not cytotoxic

CCCCCCCCNC(=O)NCc1ccc(O)c(O)c1 [JC010]
cytotoxic effect on differentiated cells (summary) [2]: relatively low | cytotoxicity to differentiated cells (dose response curve) [2]: not cytotoxic | cell death of hESCs (BGO1v) (hESC cell line BGO1v): high percentages of cell death | IC50 (undifferentiated hESCs; Homo sapiens): ~2.5 µg/mL (≈ 8.49 µM) | cell death, breast CSC cell line [3]: about 15% | selective killing of hESCs (FIG. 4) (hESCs; 2.5 μg/mL (8 μM)): selectively killed | lowest concentration at which cytotoxic effects were seen (hESCs): 2.5 µg/mL | selective killing of hESCs (FIG. 4) (hESCs; 12.5 μg/mL (40 μM)): selectively killed | killing of hESCs (light microscopic images, FIG. 2) (hESCs; 40 μM): selective and rapid killing of hESCs | cytotoxic effect on undifferentiated hESCs (summary) (hESCs): particularly high cytotoxic effect | cell death of normal human primary astrocytes [1]: low percentages of cell death | killing of hESC in Trypan Blue assay (FIGS. 5 and 6) (hESC): wide spread killing of hESC | relative fluorescence of treated undifferentiated hESCs (H1 cells) [4]: significantly lower | relative fluorescence of treated murine feeder cells [5]: not significantly different

CCCCCCCCC(=O)NCc1ccc(O)c(O)c1 [JC011]
cytotoxic effect on differentiated cells (summary) [2]: relatively low | cytotoxicity to differentiated cells (dose response curve) [2]: not cytotoxic | killing of differentiated hESCs (relative fluorescence versus control) ([2]; 40 μM, 24 hr, bGFG withdrawn, FIG. 9): did not kill differentiated hESCs | ROS content compared to untreated cells (Wicell H1 cells): decreased significantly | cell death of hESCs (BGO1v) (hESC cell line BGO1v): high percentages of cell death | IC50 (in words) (undifferentiated hESCs): at the nanogram level | cell death, breast CSC cell line [3]: about 15% | selective killing of hESCs (FIG. 4) (hESCs; 2.5 μg/mL (8 μM)): selectively killed | lowest concentration at which cytotoxic effects were seen (hESCs): 2.5 µg/mL | selective killing of hESCs (FIG. 4) (hESCs; 12.5 μg/mL (40 μM)): selectively killed | killing of hESCs (light microscopic images, FIG. 2) (hESCs; 40 μM): selective and rapid killing of hESCs | cytotoxic effect on undifferentiated hESCs (summary) (hESCs): particularly high cytotoxic effect | specificity (hESCs versus feeder cells), compared among JC010, JC011 and JC017 (hESCs): highest specificity | cell death of normal human primary astrocytes [1]: low percentages of cell death | killing of hESC in Trypan Blue assay (FIGS. 5 and 6) (hESC): wide spread killing of hESC | IPS-DF19-9 cells killed compared to the control (IPS-DF19-9 cells): about 67% | IPS-DF19-9 cells remained alive (IPS-DF19-9 cells): 33% | relative fluorescence of treated undifferentiated hESCs (H1 cells) [4]: significantly lower | IPS-foreskin cells killed compared to the control (IPS-foreskin cells): about 62% | IPS-foreskin cells remained alive (IPS-foreskin cells): 38% | relative fluorescence of treated murine feeder cells [5]: not significantly different

CCCCCCNC(=O)NCc1ccc(O)c(O)c1 [JC017]
cell death of hESCs (BGO1v) (hESC cell line BGO1v): high percentages of cell death | cell death, colon CSC cell line [6]: 15-33% | cell death, breast CSC cell line [3]: about 15% | killing of feeder cells (summary) [7]: some feeder cells were also killed | killing effect on hESCs (light microscopic images, FIG. 3) (hESCs; 40 μM, 12 hours, compared to FIG. 2): not as selective nor as potent as the effect of the analogues JC010 and JC011 | cytotoxic effect on undifferentiated hESCs (summary) (hESCs): particularly high cytotoxic effect | specificity (hESCs versus feeder cells), compared among JC010, JC011 and JC017 (hESCs): lowest specificity | cell death of normal human primary astrocytes [1]: low percentages of cell death

CCCCCCNC(=O)Cc1cc(O)ccc1O [JC025]
selective cytotoxic activity towards undifferentiated or dedifferentiated stem cells (hESC cell line BGO1v): did not exhibit any selective cytotoxic activity

CCCCCCCCNC(=O)Cc1cc(O)ccc1O [JC026]
selective cytotoxic activity towards undifferentiated or dedifferentiated stem cells (hESC cell line BGO1v): did not exhibit any selective cytotoxic activity

CCCCCCCCCC(=O)NCc1ccc(O)c(O)c1 [JC040]
cytotoxic effect on CSCs (summary) (CSCs): high cytotoxic effect | cell death, colon CSC cell line [6]: ~45% | cell death, breast CSC cell line [3]: 25-35%

CCCCCCCCCCCC(=O)NCc1ccc(O)c(O)c1 [JC048]
cytotoxic effect on CSCs (summary) (CSCs): high cytotoxic effect | cell death, colon CSC cell line [6]: ~45% | cell death, breast CSC cell line [3]: ~55%

CCCCCCCCCCC(=O)NCc1ccc(O)c(O)c1 [JC049]
cytotoxic effect on CSCs (summary) (CSCs): high cytotoxic effect | cell death, colon CSC cell line [6]: 15-33% | cell death, breast CSC cell line [3]: 25-35%

CCCCCCCCCCCCCC(=O)NCc1ccc(O)c(O)c1 [JC050]
cell death, breast CSC cell line [3]: 25-35%

COc1cc(CNC(=O)CCCC/C=C/C(C)C)ccc1O [capsaicin]
concentration for in vitro cytotoxic effect [8]: 100 µM
